Values quoted from earlier work as cited in patent publication US20060111442A1, “Use of methyl pyruvate to increase cellular energy production downstream of glycolysis for the PARP-1 ablation of HIV without necrotic cell death caused by continuous, chronic PARP-1 activation through the concomitant depletion of ATP and NAD” (priority 2004, published 2006).

Key:
[1] = test system: hepatic stellate cells (HSC); conditions: 10 microm 15dPGJ(2); 0.1 approximately 10 microm BRL49653; WY14643 >100 microm, not <10 microm
PDK4 [2] = conditions: control and high-fat-fed rats
PDK4 [3] = conditions: feeding
[4] = test system: guinea-pig cerebral cortical synaptosomes
mGPDH-deficient islets = conditions: both NADH shuttles halted
Na(+)-K(+)-ATPase = conditions: 10 microM
[5] = 1 mmol.kg-1.d-1, 7 d; P<0.01

In the case of `Cc1cccc(Nc2cc(Cl)nc(SCC(=O)O)n2)c1C` [WY14643], the “HSC DNA and collagen synthesis” value [1] is listed as “inhibited”, the “hepatic PDK4 protein” value (PDK4 [2]) is listed as “significantly increased PDK4 protein” and the “pyruvate dehydrogenase kinase activity, PDK4 protein, PDK4 mRNA in gastrocnemius muscle” value (PDK4 [3]) is listed as “induced large increases”.
In the case of `NOCC(=O)O` [amino-oxyacetic acid], the “negative shift in the cytosolic NAD+/NADH redox potential” value [4] is listed as 26 mV and the glucose-induced insulin secretion (mGPDH-deficient islets) is listed as “almost completely abrogated”.
For `C[C@@H]1O[C@@H](O[C@H]2C[C@@H](O)[C@]3(CO)[C@H]4[C@H](O)C[C@]5(C)[C@@H](C6=CC(=O)OC6)CC[C@]5(O)[C@@H]4CC[C@]3(O)C2)[C@H](O)[C@H](O)[C@H]1O` [ouabain], the “glycolysis and lactate production” value (Na(+)-K(+)-ATPase) is given as “decreased glycolysis and lactate production”.
In the case of `CCO[C@@H](Cc1ccc(OCCc2ccc(OS(C)(=O)=O)cc2)cc1)C(=O)O` [tesaglitazar], the “insulin sensitivity (glucose infusion rate during hyperinsulinemic-euglycemic clamp)” value [5] is given as “improved the insulin sensitivity”.
